From patent publication US20200308165A1, “Compounds as Ras Inhibitors and Use Thereof” (D.E. Shaw Research, LLC, priority 2017, published 2020)

Legend:
[1] = molecular target: Ras protein (Homo sapiens, UniProt P01116); test: GDPx_Icagen_IC50: SOS1-mediated guanine nucleotide exchange rate of Ras (mant-GDP); format: biochemical; conditions: SOS1-initiated exchange
From the text: (§1) In some embodiments, the IC50 assay measures the reduction effect of a given compound on the guanine nucleotide-echange rate of Ras protein in the presence of guanine nucleotide exchange protein SOS1, which is a Ras activator. In the assay GDP-loaded Ras was first prepared in a buffer containing the compound at certain concentration and fluorescent guanine nucleotide (mant-GDP (used in Icagene assay) or mant-GTP (used in other IC50 assays). The guanine nucleotide exchange was initiated by the addition of the SOS1 and its rate was reflected in the rate of fluorescence change as a function of time, which was monitored by a reader. The experiment was repeated at different compound concentrations and the IC50 of the compound was defined as the compound concentration at which half of its maximal reduction effect on the guanine nucleotide exchange rate is achieved. In other embodiments, other Ras activator proteins may be used. Non-limiting examples of other Ras activator proteins include RasGRP (Ras guanyl-releasing protein).
Example 17. Evaluation of Biological Activities: GDPx_Icagen_ICso
as §1, with “The IC50” for “In some embodiments, the IC50”, “guanine nucleotide-exchange” for “guanine nucleotide-echange”, “Ras is” for “Ras was”, “nucleotide (mant-GDP).” for “nucleotide (mant-GDP (used in Icagene assay) or mant-GTP (used in other IC50 assays).”, “achieved.” for “achieved. In other embodiments, other Ras activator proteins may be used. Non-limiting examples of other Ras activator proteins include RasGRP (Ras guanyl-releasing protein).”

[2] = molecular target: T1, KRAS4B (wild type) (Homo sapiens, UniProt P01116); test: K-Ras Nucleotide Exchange Assay-384 (SOS Exchange Assay by Cytoskeleton, GTPx_Cyt_IC50); format: biochemical; conditions: 1 μM KRAS4B, 0.05 μM SOS1, 1.5 μM mant-GDP
T1 construct: purchased Cytoskeleton CS-RS03 (K-Ras4B); CS-SOS1-A (SOS1)
Procedure: Example 16. Evaluation of Biological Activities: K-Ras Nucleotide Exchange Assay-384 (SOS Exchange Assay by Cytoskeleton (GTPx_Cyt_IC50))
This assay is used to evaluate inhibitors of K-ras, by monitoring the inhibition of nucleotide exchange over time, in the presence of the protein SOS.
384-well black, untreated plates (Corning 3820 with NBS or 3821 untreated) were used. K-Ras4B Protein was used, which is wild-type (Cytoskeleton #CS-RS03) with a concnetration of 5 mg/ml, or 200 μM. Human SOS1 Protein, Exchange Domain 564-1049 (Cytoskeleton # CS-SOS1-A) was used in a concentration of 3.03 mg/ml or 50 μM. Mant-GDP triethylammonium salt solution was purchased from Sigma (catalog No. 69244). 1M stock solution of Hepes was purchased from Sigma (catalog No. H9897). 1M stock solution of MgCl2 was purchased from Sigma (catalog No. M4880). CHAPS, 3% was purchased from Sigma (catalog No. C5070). Nonidet P40 was purchased from Sigma. KOH pellets were purchased from Sigma.
K-ras buffer containing 40 mM Hepes, 10 mM MgCl2, 0.05% CHAPS, 0.01% NP40 with a pH 7.5 was prepared as follows: to a Buffer base containing 4 ml 1M Hepes, 1 ml MgCl2,
93.3 ml d-H2O, pH 7.5 (with KOH pellets), 1.7 ml 3% CHAPS was added, followed by the addition of 1 ml 1% NP40.
Final Conditions of the method included 1 μM KRAS4B (wild type), 0.05 μM SOS1, 1.5 μM mant-GDP. Reagent Preparation included: thawing aliquots of KRAS, SOS, and mant-GDP; preparing 3x KRAS (3 uM) in assay buffer; preparing 3x SOS/mant-GDP (150 nM/4.5 uM) in assay buffer; and preparing 3x compounds in assay buffer.
Assay Procedure (1536) used 3.3 μl, 3x Kras, 3.3 μl 3x compound with preincubate 0 hour, and […] 3x SOS/mant-GDP. A kinetic read measuring fluorescence at 360_450 was performed for 30 min at 30 second intervals.
Reference compound SCH 54292 (reversible inhibitor) at about 100 μM was used with no preincubation. Reagents were only stable for 45 min on ice, and therefore were prepared fresh before each assay. Partial plates (up to 9 columns) were run at a time to minimize effects due to the amount of time it takes to read a whole plate. SOS/mant-GDP were added with an automated pipettor to initiate all reactions at the same time. Assay was typically performed at 0.5% solution in DMSO (compounds prepared in 1.5% DMSO initially).
Clariostar Settings were as follows. Test Name was Kras Kinetic 360-450. Basic settings of the test included Measurement type as Fluorescence (FI), and Microplate name as Corning 3820. Plate mode settings included 61 cycles, 30 second cycle time, and 10 flashes per well. Optic settings were as follows. Excitation wavelength was 360 nm. Emission wavelength was 450 nM. Excitation bandwidth was 12 nm. Emission bandwidth was 12 nm. Dichroic filter 405 was used. D6 Well(s) was used for gain adjustment. No shaking was used. General settings were as follows. Top optic was used. Settling time was 0.1 second. Reading direction was bidirectional, horizontal left to right, and bottom to top. The target temperature was 25° C.

Ras protein, sequence (P01116 1-188 isoform P01116-2): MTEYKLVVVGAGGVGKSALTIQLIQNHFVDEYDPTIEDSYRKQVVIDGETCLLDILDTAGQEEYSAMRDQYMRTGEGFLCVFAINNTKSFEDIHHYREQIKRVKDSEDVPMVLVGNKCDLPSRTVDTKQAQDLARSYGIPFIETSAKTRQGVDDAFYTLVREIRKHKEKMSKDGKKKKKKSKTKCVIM
T1 sequence (P01116 1-188 isoform P01116-2): as above

SMILES	IC50 [1] [nM]	IC50 [2] [nM]
O=c1cc(COc2ccccc2)[nH]n1-c1nc2ccccc2[nH]1 [Compound145, 2-(1H-benzo[d]imidazol-2-yl)-5-(phenoxymethyl)-1,2-dihydro-3H-pyrazol-3-one]	800	3900
CCc1csc(SCc2cc(=O)n(-c3nc4ccccc4[nH]3)[nH]2)n1 [Compound 139, 2-(1H-benzo[d]imidazol-2-yl)-5-(((4-ethylthiazol-2-yl)thio)methyl)-1H-pyrazol-3(2H)-one]	50	–
Cc1ccc(-n2[nH]c(CSc3ccccc3)cc2=O)nc1 [Compound 140, 2-(5-methylpyridin-2-yl)-5-((phenylthio)methyl)-1H-pyrazol-3(2H)-one]	1600	30800
Cc1c(CSc2ccccc2)[nH]n(-c2nc3ccccc3[nH]2)c1=O [Compound 141, 2-(1H-benzo[d]imidazol-2-yl)-4-methyl-5-((phenylthio)methyl)-1H-pyrazol-3(2H)-one]	770	100000
O=c1cc(CSc2ccccn2)[nH]n1-c1nc2ccccc2[nH]1 [Compound 142, 2-(1H-benzo[d]imidazol-2-yl)-5-((pyridin-2-ylthio)methyl)-1H-pyrazol-3(2H)-one]	170	1200
Cc1cc(C)nc(SCc2cc(=O)n(-c3ccccn3)[nH]2)n1 [Compound 143, 5-(((4,6-dimethylpyrimidin-2-yl)thio)methyl)-2-(pyridin-2-yl)-1,2-dihydro-3H-pyrazol-3-one]	2100	5400
O=c1cc(CSc2ccccc2)[nH]n1-c1nc2ccccc2[nH]1 [Compound 144, 2-(1H-benzo[d]imidazol-2-yl)-5-((phenylthio)methyl)-1,2-dihydro-3H-pyrazol-3-one]	300	420
Cc1cc(C)nc(SCc2cc(=O)n(-c3nc4ccccc4[nH]3)[nH]2)n1 [Compound 146, 2-(1H-benzo[d]imidazol-2-yl)-5-(((4,6-dimethylpyrimidin-2-yl)thio)methyl)-1,2-dihydro-3H-pyrazol-3-one]	1800	2600
Cc1nnc(SCc2cc(=O)n(-c3nc4ccccc4[nH]3)[nH]2)s1 [Compound 147, 2-(1H-benzo[d]imidazol-2-yl)-5-(((5-methyl-1,3,4-thiadiazol-2-yl)thio)methyl)-1,2-dihydro-3H-pyrazol-3-one]	3300	850
O=c1cc(CSCc2ccc(F)cc2)[nH]n1-c1nc2ccccc2[nH]1 [Compound 148, 2-(1H-benzo[d]imidazol-2-yl)-5-(((4-fluorobenzyl)thio)methyl)-1,2-dihydro-3H-pyrazol-3-one]	300	550
O=c1cc(CSc2nccc(C(F)(F)F)n2)[nH]n1-c1nc2ccccc2[nH]1 [Compound 149, 2-(1H-benzo[d]imidazol-2-yl)-5-(((4-(trifluoromethyl)pyrimidin-2-yl)thio)methyl)-1,2-dihydro-3H-pyrazol-3-one]	300	410

Second part, the compound after the results:

IC50 [1] [nM]	IC50 [2] [nM]	SMILES
200	980	COc1cccc(SCc2cc(=O)n(-c3nc4ccccc4[nH]3)[nH]2)c1 [Compound 150, 2-(1H-benzo[d]imidazol-2-yl)-5-(((3-methoxyphenyl)thio)methyl)-1,2-dihydro-3H-pyrazol-3-one]
400	400	O=c1cc(CSc2nc(-c3ccccc3)cs2)[nH]n1-c1nc2ccccc2[nH]1 [Compound 151, 2-(1H-benzo[d]imidazol-2-yl)-5-(((4-phenylthiazol-2-yl)thio)methyl)-1,2-dihydro-3H-pyrazol-3-one]
–	12800	Cc1cc(C)nc(SCc2cc(=O)n(-c3nc4ccc(Br)cc4s3)[nH]2)n1 [Compound 155, 2-(6-bromobenzo[d]thiazol-2-yl)-5-(((4,6-dimethylpyrimidin-2-yl)thio)methyl)-1,2-dihydro-3H-pyrazol-3-one]
–	17600	Cc1cc(C)nc(SCc2cc(=O)n(-c3ccc(C(F)(F)F)cn3)[nH]2)n1 [Compound 157, 5-(((4,6-dimethylpyrimidin-2-yl)thio)methyl)-2-(5-(trifluoromethyl)pyridin-2-yl)-1,2-dihydro-3H-pyrazol-3-one]
–	7400	O=c1cc(CSc2ccc(Br)cn2)[nH]n1-c1ccccn1 [Compound 160, 5-(((5-bromopyridin-2-yl)thio)methyl)-2-(pyridin-2-yl)-1,2-dihydro-3H-pyrazol-3-one]
–	2700	O=c1cc(CSCc2ccc(F)cc2)[nH]n1-c1ccccn1 [Compound 161, 5-(((4-fluorobenzyl)thio)methyl)-2-(pyridin-2-yl)-1,2-dihydro-3H-pyrazol-3-one]
63	–	O=c1cc(CSc2cc(Cl)cc(Cl)c2)[nH]n1-c1nc2ccccc2[nH]1 [Compound 175, 2-(1H-benzo[d]imidazol-2-yl)-5-(((3,5-dichlorophenyl)thio)methyl)-1,2-dihydro-3H-pyrazol-3-one]
6000	–	O=c1cc(CSc2ccccc2)[nH]n1-c1cc(Br)ccn1 [Compound 176, 2-(4-bromopyridin-2-yl)-5-((phenylthio)methyl)-1,2-dihydro-3H-pyrazol-3-one]
400	–	O=c1cc(CSc2nc3cccnc3s2)[nH]n1-c1nc2ccccc2[nH]1 [Compound 177, 2-(1H-benzo[d]imidazol-2-yl)-5-((thiazolo[5,4-b]pyridin-2-ylthio)methyl)-1,2-dihydro-3H-pyrazol-3-one]
320	–	NC(=O)c1ccc(SCc2cc(=O)n(-c3nc4ccccc4[nH]3)[nH]2)cc1 [Compound 178, 4-(((1-(1H-benzo[d]imidazol-2-yl)-5-oxo-2,5-dihydro-1H-pyrazol-3-yl)methyl)thio)benzamide]
4500	–	O=c1cc(CSc2ccccc2)[nH]n1-c1ncc[nH]1 [Compound 179, 2-(1H-imidazol-2-yl)-5-((phenylthio)methyl)-1,2-dihydro-3H-pyrazol-3-one]
200	–	O=c1cc(CSc2nc(Cc3ccccc3)cs2)[nH]n1-c1nc2ccccc2[nH]1 [Compound 180, 2-(1H-benzo[d]imidazol-2-yl)-5-(((4-benzylthiazol-2-yl)thio)methyl)-1,2-dihydro-3H-pyrazol-3-one]
2500	–	O=c1cc(CSc2cccnc2)[nH]n1-c1nc2ccccc2[nH]1 [Compound 181, 2-(1H-benzo[d]imidazol-2-yl)-5-((pyridin-3-ylthio)methyl)-1,2-dihydro-3H-pyrazol-3-one]
3200	–	Cc1csc(SCc2cc(=O)n(-c3ccccn3)[nH]2)n1 [Compound 182, 5-(((4-methylthiazol-2-yl)thio)methyl)-2-(pyridin-2-yl)-1,2-dihydro-3H-pyrazol-3-one]
